Our source for the EC50 and EC90 values is patent US8772505B2, “Antiviral compounds composed of three aligned aryl moieties to treat diseases such as hepatitis C” (Merck Sharp & Dohme Corp., priority 2009, dated 2014).

Molecules are shown by their SMILES.

For one test, the system named is HCV replicon genotype 1a 1A7. The test is described as follows: HCV replicon assay, genotype 1a 1A7. Type of test: cell-based. The note with it: Hepatitis C virus. As to the method: (§1) To measure cell-based anti-HCV activity of selected compounds of the present invention, replicon cells were seeded at 5000 cells/well in 96-well collagen I-coated Nunc plates in the presence of the test compound. Various concentrations of test compound, typically in 10 serial 2-fold dilutions, were added to the assay mixture, with the starting concentration ranging from 250 μM to 1 μM. The final concentration of DMSO was 0.5%, fetal bovine serum was 5%, in the assay media. Cells were harvested on day 3 by the addition of 1× cell lysis buffer (Ambion cat #8721). The replicon RNA level was measured using real time PCR (Taqman assay). The amplicon was located in 5B. The PCR primers were: 5B.2F, ATGGACAGGCGCCCTGA (SEQ. ID NO. 1); 5B.2R, […] (SEQ. ID NO. 2); the probe sequence was FAM-labeled CACGCCATGCGCTGCGG (SEQ. ID NO. 3). GAPDH RNA was used as endogenous control and was amplified in the same reaction as NS5B (multiplex PCR) using primers and VIC-labeled probe recommended by the manufacturer (PE Applied Biosystem). […] Alternatively, to quantitate the absolute amount of replicon RNA, a standard curve was established by including serially diluted T7 transcripts of replicon RNA in the Taqman assay. […]
(In general: In antiviral work, replicon cells carry a viral genome segment that copies itself.)
`COC(=O)N[C@H](C(=O)N1CCC[C@H]1c1nc2ccc(-c3ccc(-c4ccc5nc([C@@H]6CCCN6C(=O)[C@@H](NC(=O)OC)C(C)C)[nH]c5c4)c(OC(F)(F)F)c3)cc2[nH]1)C(C)C` [Compound 129] came in with an EC50 of 0.05 nM.

Another test relates to HCV replicon genotype 1b c16. The test is described as follows: HCV replicon assay, genotype 1b c16. Type of test: cell-based. The following applies: Hepatitis C virus. On the procedure: as §1
The compound `COC(=O)N[C@H](C(=O)N1CCC[C@H]1c1nc2ccc(-c3ccc(-c4ccc5nc([C@@H]6CCCN6C(=O)[C@@H](NC(=O)OC)C(C)C)[nH]c5c4)c(OC(F)(F)F)c3)cc2[nH]1)C(C)C` [Compound 129] had an EC50 of 0.003 nM.

For a further test, the system named is HCV replicon. The test can be described thus: Cell-based HCV replicon assay (EC90). The following applies: Hepatitis C virus, 72 h; replicon RNA by real time PCR (Taqman), day 3; class symbols; read-out: Biological Activity (EC90, HCV replicon). As to the method:
To measure cell-based anti-HCV activity of selected compounds of the present invention, replicon cells were seeded at 5000 cells/well in 96-well collagen I-coated Nunc plates in the presence of the test compound. Various concentrations of test compound, typically in 10 serial 2-fold dilutions, were added to the assay mixture, with the starting concentration ranging from 250 μM to 1 μM. The final concentration of DMSO was 0.5%, fetal bovine serum was 5%, in the assay media. Cells were harvested on day 3 by the addition of 1× cell lysis buffer (Ambion cat #8721). The replicon RNA level was measured using real time PCR (Taqman assay). The amplicon was located in 5B. The PCR primers were: 5B.2F, ATGGACAGGCGCCCTGA (SEQ. ID NO. 1); 5B.2R, […] (SEQ. ID NO. 2); the probe sequence was FAM-labeled CACGCCATGCGCTGCGG (SEQ. ID NO. 3). GAPDH RNA was used as endogenous control and was amplified in the same reaction as NS5B (multiplex PCR) using primers and VIC-labeled probe recommended by the manufacturer (PE Applied Biosystem). The real-time RT-PCR reactions were run on ABI PRISM 7900HT Sequence Detection System using the following program: 48° C. for 30 min, 95° C. for 10 min, 40 cycles of 95° C. for 15 sec, 60° C. for 1 min. The ACT values (CT5B-CTGAPDH) were plotted against the concentration of test compound and fitted to the sigmoid dose-response model using XLfit4 (MDL). EC50 was defined as the concentration of inhibitor necessary to achieve ΔCT=1 over the projected baseline; EC90 the concentration necessary to achieve ΔCT=3.2 over the baseline. Alternatively, to quantitate the absolute amount of replicon RNA, a standard curve was established by including serially diluted T7 transcripts of replicon RNA in the Taqman assay. All Taqman reagents were from PE Applied Biosystems. Such an assay procedure was described in detail in e.g. Malcolm et al., Antimicrobial Agents and Chemotherapy 50: 1013-1020 (2006).
HCV replicon assay data was calculated for selected compounds of the present invention using this method.
For `CC(=O)N1CCC[C@H]1c1nc2ccc(-c3ccc(-c4ccc5nc([C@@H]6CCCN6C(C)=O)[nH]c5c4)nc3)cc2[nH]1` [Compound 42], the EC90 is over 1000 nM.

In the case of `c1cc(-c2ccc3nc([C@@H]4CCCN4)[nH]c3c2)ncc1-c1ccc2nc([C@@H]3CCCN3)[nH]c2c1` [Compound 43], the EC90 is over 1000 nM. On the same count and under the same terms, the same measure for `COC(=O)N[C@H](C(=O)N1CCC[C@H]1c1nc2ccc(-c3ccc(-c4ccc5nc([C@@H]6CCCN6C(=O)[C@@H](NC(=O)OC)C(C)C)[nH]c5c4)nc3)cc2[nH]1)C(C)C` [Compound 44]: under 1 nM; for `COC(=O)N[C@H](C(=O)N1CCC[C@H]1c1nc2ccc(-c3ccc(-c4ccc5nc([C@@H]6CCCN6C(=O)[C@@H](NC(=O)OC)C(C)C)[nH]c5c4)s3)cc2[nH]1)C(C)C` [Compound 55]: under 1 nM; for `COC(=O)N[C@H](C(=O)N1CCC[C@H]1c1nc2ccc(-c3ccc(-c4ccc5nc([C@@H]6CCCN6C(=O)[C@@H](NC(=O)OC)C(C)C)[nH]c5c4)c4ccccc34)cc2[nH]1)C(C)C` [Compound 59]: under 1 nM.

`COC(=O)N[C@H](C(=O)N1CCC[C@H]1c1nc2ccc(-c3cnc(-c4ccc5nc([C@@H]6CCCN6C(=O)[C@@H](NC(=O)OC)C(C)C)[nH]c5c4)cn3)cc2[nH]1)C(C)C` [Compound 64]: the concentration for an effect of 90% (EC90) was under 1 nM. Still for that read-out and setting: the same measure for `COC(=O)N[C@H](C(=O)N1CCC[C@H]1c1nc2cc(F)c(-c3cc(C)c(-c4cc5[nH]c([C@@H]6CCCN6C(=O)[C@@H](NC(=O)OC)C(C)C)nc5cc4F)s3)cc2[nH]1)C(C)C` [Compound 119]: under 1 nM; for `CCCCc1cc(-c2ccc3nc([C@@H]4CCCN4C(=O)[C@@H](NC(=O)OC)C(C)C)[nH]c3c2)sc1-c1ccc2nc([C@@H]3CCCN3C(=O)[C@@H](NC(=O)OC)C(C)C)[nH]c2c1` [Compound 121]: under 1 nM. Same read-out and setting: the value for `COC(=O)N[C@H](C(=O)N1CCC[C@H]1c1nc2ccc(-c3cc(-c4ccccc4)c(-c4ccc5nc([C@@H]6CCCN6C(=O)[C@@H](NC(=O)OC)C(C)C)[nH]c5c4)s3)cc2[nH]1)C(C)C` [Compound 128] was under 1 nM.

For the compound `COC(=O)N[C@H](C(=O)N1CCC[C@H]1c1nc2ccc(-c3ccc(-c4ccc5nc([C@@H]6CCCN6C(=O)[C@@H](NC(=O)OC)C(C)C)[nH]c5c4)c(OC(F)(F)F)c3)cc2[nH]1)C(C)C` [Compound 129], the EC90 is under 1 nM. Still for that read-out and setting: the same measure for `COC(=O)N[C@H](C(=O)N1CCC[C@H]1c1nc2ccc(-c3ccc(-c4ccc5nc([C@@H]6CCCN6C(=O)[C@@H](NC(=O)OC)C(C)C)[nH]c5c4)c4c3ccn4C)cc2[nH]1)C(C)C` [Compound 133]: under 1 nM; for `[2H]C([2H])([2H])C([2H])(C([2H])([2H])[2H])[C@]([2H])(NC(=O)OC)C(=O)N1CCC[C@H]1c1nc2ccc(-c3ccc(-c4ccc5nc([C@@H]6CCCN6C(=O)[C@@]([2H])(NC(=O)OC)C([2H])(C([2H])([2H])[2H])C([2H])([2H])[2H])[nH]c5c4)c(OC(F)(F)F)c3)cc2[nH]1` [Compound 134]: under 1 nM. `[2H]C([2H])([2H])C([2H])(C([2H])([2H])[2H])[C@]([2H])(NC(=O)OC)C(=O)N1C([2H])([2H])C([2H])([2H])C([2H])([2H])[C@]1([2H])c1nc2ccc(-c3ccc(-c4ccc5nc([C@]6([2H])N(C(=O)[C@@]([2H])(NC(=O)OC)C([2H])(C([2H])([2H])[2H])C([2H])([2H])[2H])C([2H])([2H])C([2H])([2H])C6([2H])[2H])[nH]c5c4)c(OC(F)(F)F)c3)cc2[nH]1` [Compound 135]: the concentration for an effect of 90% (EC90) is under 1 nM.

The test is the same for the next values; noted with them: Hepatitis C virus, 72 h; replicon RNA by real time PCR (Taqman), day 3; numeric, unit inferred; read-out: Biological Activity (EC90, HCV replicon).
For `C#CC[C@@H](NC(=O)OC)C(=O)N1CCC[C@H]1c1nc2ccc(-c3ccc(-c4ccc5nc([C@@H]6CCCN6C(=O)[C@@H](CC#C)NC(=O)OC)[nH]c5c4)s3)cc2[nH]1` [Compound 99], the EC90 turned out to be 0.2 nM. Still for that read-out and setting: the value for `COC(=O)N[C@H](C(=O)N1CCC[C@H]1c1nc2ccc(-c3cc(C)c(-c4ccc5nc([C@@H]6CCCN6C(=O)[C@@H](NC(=O)OC)C(C)C)[nH]c5c4)s3)cc2[nH]1)C(C)C` [Compound 103] was 0.005 nM; that for `COC(=O)N[C@H](C(=O)N1CCC[C@H]1c1nc2cc(F)c(-c3ccc(-c4cc5[nH]c([C@@H]6CCCN6C(=O)[C@@H](NC(=O)OC)C(C)C)nc5cc4F)s3)cc2[nH]1)C(C)C` [Compound 115] was 0.003 nM.

The test is the same for the next values; noted with them: Hepatitis C virus, 72 h; replicon RNA by real time PCR (Taqman), day 3; numeric; read-out: Biological Activity (EC90, HCV replicon).
As to `CCCCc1cc(-c2ccc3nc([C@@H]4CCCN4)[nH]c3c2)sc1-c1ccc2nc([C@@H]3CCCN3)[nH]c2c1` [Compound 72], the EC90 worked out at 26 nM. On the same count and under the same terms, the value for `COC(=O)N[C@H](C(=O)N1CCC[C@H]1c1ncc(-c2ccc(-c3ccc4nc([C@@H]5CCCN5C(=O)[C@@H](NC(=O)OC)C(C)C)[nH]c4c3)[nH]c2=O)[nH]1)C(C)C` [Compound 91] was 6 nM.

As a reminder, the EC50 is the concentration that produces a half-maximal response. Read a low EC50 as an effect from little substance. As a reminder, the EC90 is the point of the concentration-response curve where the effect stands at 90%.
